Values of other authors, collected in patent US20070082063A1, “Risk assessment and correction of membrane damage of the upper GI tract” (priority 2005, published 2007).

Tests used:
[1] = animals with reduced membrane arachidonate
[2] = humans or animals with normal membrane arachidonate content

Structure (SMILES): CCCCC/C=C\C/C=C\C/C=C\CCCCC(=O)O [GLA, gamma-linolenic acid]
- effect on membrane arachidonate content [1]: significantly increase

Structure (SMILES): CCCCC/C=C\C/C=C\C/C=C\C/C=C\CCCC(=O)O [ARA, arachidonic acid]
- effect on serum or tissue arachidonate content [2]: little effect
